Measurements: patent publication US20040204577A1, “Novel peptide-forming enzyme gene” (Ajinomoto Co., Inc., priority 2003, published 2004)
Where a SMILES comes first, the peptide text is derived from it.

Test system: SP-Sepharose HP fraction enzyme
Assay: Production of L-alanyl-L-glutamine using enzyme fraction of Sphingobacterium sp.
Assay type: biochemical
Conditions: 10 μl fraction (about 27 U/ml) + 90 μl buffer with 111 mM L-alanine methyl ester hydrochloride, 222 mM L-glutamine; pH 9.0, 25° C., 120 minutes
Experimental: The following procedure after centrifugation was carried out either on ice or at 4° C. Sphingobacterium sp. strain FERM BP-8124 (Depositary institution: the independent administrative corporation, National Institute of Advanced Industrial Science and Technology, International Patent Organism Depositary, Address of depositary institution: Chuo Dai-6, 1-1 Higashi 1-Chome, Tsukuba-shi, Ibaraki-ken, Japan, International deposit date: Jul. 22, 2002) was cultured in the same manner as Example 21, and the microbial cells were collected by centrifugation (10,000 rpm, 15 minutes). After washing 2 g of microbial cells with 20 mM Tris-HCl buffer (pH 7.6), they were suspended in 8 ml of the same buffer and subjected to ultrasonic crushing treatment for 45 minutes at 195 W. This ultrasonic crushed suspension was then centrifuged (10,000 rpm, 30 minutes) to remove the crushed cell fragments and obtain a supernatant. This supernatant was dialyzed overnight against 20 mM Tris-HCl buffer (pH 7.6) followed by removal of the insoluble fraction by ultracentrifugation (50,000 rpm, 30 minutes) to obtain a soluble fraction in the form of the supernatant liquid. The resulting soluble fraction was applied to a Q-Sepharose HP column (manufactured by Amersham) pre-equilibrated with Tris-HCl buffer (pH 7.6), and the active fraction was collected from the non-adsorbed fraction. […]

L-alanyl-L-glutamine formed, enzyme-added lot: 73 mM
Compound: C[C@H](N)C(=O)N[C@@H](CCC(N)=O)C(=O)O [L-Ala-L-Gln, L-alanyl-L-glutamine] (H-Ala-Gln-OH)
